Experimental data from patent US5449608A, “Parvovirus B19 receptor and parvovirus B19 detection” (The United States of America as represented by the …, priority 1993, dated 1995).

Legend:
human red cells = test: Hemagglutination (HA) assay with reagent-treated erythrocytes and B19 empty capsids; type: cell-based; conditions: for Change in HA titer (log2): erythrocytes incubated with agent at 37° C.; for Effect of red cell treatment on binding of virus to the erythrocytes: human red cells treated with agent
Source text: (§1) The B19 parvovirus receptor was identified utilizing a hemagglutination (HA) assay as described in Brown and Cohen (1992). Briefly, the ability of B19 to hemagglutinate human red cells was utilized to evaluate the ability of certain compounds to inhibit agglutination in the assay. Cellular components from red cell membranes were fractionated and their reactivity evaluated in the HA assay. Lipid extraction and purification of glycolipid fractions followed by evaluation in the HA assay identified the glycosphingolipid, globoside, as the cellular receptor for B19. Further, biochemical characterization and HA evaluation identified the polysaccharide GalNAc(β,3-3)Gal(α1-4)Gal(β,1-4)Glc as the specific binding domain for B19. […] Antibodies specific for globoside were also utilized in the assay to block infectivity to verify that globoside was the receptor.
In order to characterize the physical nature of the B19 receptor, human red cells were treated with a variety of agents and the change in hemagglutination (HA) titer measured (ICE. Brown et al. (1992)) (Table 1).
Table 1. Washed erythrocytes (0.5% v/v) were incubated at 37° C.
with the reagents, washed twice in saline and resuspended at 0.5%. The
cells were used in a standard hemagglutination assay using B19 empty
capsids produced in insect cells (Brown and Cohen (1992)) the end point
was 50% HA (1 HA50). In the table, therefore, an increasing the HA
titer (log2) by a factor of one reflects a doubling of the measured

B19 empty capsids [1] = test: Hemagglutination inhibition assay (HAI); type: binding, parvovirus B19; conditions: for HAI titer: Purified glycosphingolipid, 1 mg/ml in saline, 4-8 HA50 units of virus capsid
Source text: as §1
To identify the B19 cellular receptor, the ability of B19 to agglutinate red cells and B19 infectivity assays were used as measures of viral binding. It had been previously shown that B19 parvovirus empty capsids (S. Kajigaya et al. (1991)) agglutinate human red cells Brown and Cohen (1992)), and we tested the ability of membrane extracts from different cell types to block B19 binding in the hemagglutination assay (HA). Membrane extracts were prepared using 10 mM CHAPS (3-[(3cholamidopropyl)-dimethylammonio]-1-propanesulfonate) to solubilize proteins and lipids.
Table 2. Human erythrocyte ghosts (J. T. Dodge, et al (1963)) were treate
with 10 mM CHAPS, the solubilized extract incubated with agarose
immobilized enzymes overnight at 37° C. and the supernatant tested
in a hemagglutination inhibition assay (HAI). Purified glycosphingolipids
(Sigma or BioCarb Chemicals) were dissolved in saline and tested by HAI
using 4-8 HA50 units of virus capsid. (In the table, CTH is ceramide
trihexoside and the HAI titer is the dilution required to reduce the HA t
Table 3. Hemagglutination inhibition (HAI) titers red cell lipid
fractionated on different columns. Lipid was extracted from red cell
ghosts (9,12) and fractionated on either a silica gel or
DEAEcellulose-acetate column (13). Organic solvents were removed by
evaporation and salts removed by dialysis against water and
lyophilization. The residual pellets were resuspended in saline and teste
in the hemagglutination assay.

B19 virus = test: Erythroid progenitor assay (CFU-E in methylcellulose) for B19 infection; type: cell-based, parvovirus B19; conditions: for Blocking of B19 cytotoxicity to CFU-E: B19 virus preincubated with globoceramide two hours, then bone marrow mononuclear cells two hours, CFU-E counted seven days later
Protocol: To establish the biological relevance of binding of virus to P antigen, globoceramides were tested for their ability to block vital infection of permissive cells, using the erythroid progenitor assay (P. P. Mortimer et al. (1983)). Parvovirus B19 is highly toxic to the production of erythroid colonies from late erythroid progenitors (CFU-E) in methylcellulose culture, and this system was used as an assay for B19 infection. In the study, binding of B19 antigen to P antigen was shown by competition of infection using globoside or monoclonal antibody to P antigen. First, B19 virus was preincubated with different globoceramides, e.g., lactosyl, triosyl, and Forssman (Sigma or BioCarb Chemicals) and with different globoside concentrations for two hours, and then mixed with bone marrow mononuclear cells for a further two hours. […] Second, mouse monoclonal antibodies to P-antigen (A. E. yon dem Borne et al. (1986)) or P1 or p^k (BioCarb Chemicals) were diluted 1:100 and incubated with bone marrow mononuclear cells for two hours. Purified B19 virus as above was added for a further two hours. The cell mixtures were plated in methylcellulose (P. Mortimer et al. (1983)) and CFU-E counted seven days later. […] There was no protection with similar antibodies against P1 or p^k.

B19 empty capsids [2] = test: Binding of viral capsids to glycosphingolipids by thin layer chromatography; set-up: species or system parvovirus B19; conditions: 1 ug of purified glycosphingolipid on silica plate
Protocol: Red cells from individuals with different blood group P system phenotypes were tested for their ability to agglutinate with parvovirus B19. Only cells containing P antigen hemagglutinated: P1 phenotype HA titer was 10,000; P2 phenotype HA titer was 5,000; P1^k and p phenotype were <200. […] Lipids were extracted from 0.2 mls packed red cells (H. Rose et al. (1965)) of patients with different P blood group phenotypes, dried and resuspended in 50 ul chloroform:methanol 1:1.20 ul of extract or 1 ug of each purified glycosphingolipid (Calbiochem) were applied to a silica plate (Merck) and chromatography performed with chloroform:methanol:water 65:25:4. Non-specific binding was blocked with 3% bovine albumin in phosphate buffered saline (16 hours) before the plates were sequentially incubated with B19 empty capsids, a human polyclonal anti-B19 serum, goat anti-human antibody conjugated with horse radish peroxidase, and developed with diaminobenzidene enhanced with cobalt chloride. The capsids bound to the globoside in P1 and P2 cells, and to purified globoside and Forssman antigen. B19 capsids and mouse monoclonal antibody to globoside (A. E. yon dem Borne et al. (1986)) bound to the same band on Western blotting of red cell extract, the putative "globoprotein" (Y. Tonegawa et al. (1977)).

## O[C@H](CS)[C@H](O)CS (racemic) [Dithiothreitol]
Human red cells; time 1 hr, final conc. 4 mM
  Change in HA titer (log2): 0 log2

## OCCS [2-Mercaptoethanol]
Human red cells; time 1 hr, final conc. 5 mM
  Change in HA titer (log2): 0 log2

## [Na+].[O-][I+3]([O-])([O-])[O-] [NaIO4, sodium periodate]
Human red cells; High concentrations (10 mM)
  decrease in HA titer: > 4 log2
Human red cells; time 15 min, final conc. 10 mM
  Change in HA titer (log2): < -4 log2
Human red cells; time 20 hr, final conc. 5 uM
  Change in HA titer (log2): -1 log2
Human red cells
  Effect of red cell treatment on binding of virus to the erythrocytes: markedly reduced binding

## O=C(O)CN(CCN(CC(=O)O)CC(=O)O)CC(=O)O [EDTA]
Human red cells; time 1 hr, final conc. 5 mM
  Change in HA titer (log2): 0 log2

## globotriaosylceramide [CTH, P^k]
B19 empty capsids [1]
  HAI titer: < 10
B19 virus
  Blocking of B19 cytotoxicity to CFU-E: no effect

## Trypsin
Human red cells; time 1 hr, final conc. 0.2%
  Change in HA titer (log2): +4 log2
Human red cells
  Effect of red cell treatment on binding of virus to the erythrocytes: increased binding

## C=O [Formaldehyde]
Human red cells; time 1 hr, final conc. 0.2%
  Change in HA titer (log2): 0 log2

## Lactosyl ceramide
B19 empty capsids [1]
  HAI titer: < 10
B19 virus
  Blocking of B19 cytotoxicity to CFU-E: no effect

## globotetraosylceramide [Globoside, P]
B19 empty capsids [2]
  Binding of B19 capsids on thin layer chromatography plate: bound
B19 empty capsids [1]
  Inhibition of hemagglutination by B19: inhibitory activity
  HAI titer: 25600
B19 virus
  Blocking of B19 cytotoxicity to CFU-E: completely blocked
B19 virus; different globoside concentrations
  Relationship of concentration to ability to block infectivity of mononuclear cells with B19 virus: positive linear relationship
